Laboratory results reported in article PMC4669708 (Cell Death & Disease, 2015).

Tests used:
Test in all cases: c-ponatinib pulldown LC-MS/MS
Assay type in all cases: binding
TNIK = TNIK (Homo sapiens, UniProt Q9UKE5)
In short: (§1)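 c-Ponatinib (25 nmol) immobilized on NHS-Sepharose was incubated with 10 mg whole cell lysate per replicate, in duplicate. Eluates were reduced, alkylated, trypsin-digested and analysed by gel-free 1D LC-MS/MS. Specificity was scored from Mascot, Phenyx and spectral counts, with competition by free compound.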

HCK = HCK (Homo sapiens, UniProt P08631)
Chain of HCK (P08631 whole entry): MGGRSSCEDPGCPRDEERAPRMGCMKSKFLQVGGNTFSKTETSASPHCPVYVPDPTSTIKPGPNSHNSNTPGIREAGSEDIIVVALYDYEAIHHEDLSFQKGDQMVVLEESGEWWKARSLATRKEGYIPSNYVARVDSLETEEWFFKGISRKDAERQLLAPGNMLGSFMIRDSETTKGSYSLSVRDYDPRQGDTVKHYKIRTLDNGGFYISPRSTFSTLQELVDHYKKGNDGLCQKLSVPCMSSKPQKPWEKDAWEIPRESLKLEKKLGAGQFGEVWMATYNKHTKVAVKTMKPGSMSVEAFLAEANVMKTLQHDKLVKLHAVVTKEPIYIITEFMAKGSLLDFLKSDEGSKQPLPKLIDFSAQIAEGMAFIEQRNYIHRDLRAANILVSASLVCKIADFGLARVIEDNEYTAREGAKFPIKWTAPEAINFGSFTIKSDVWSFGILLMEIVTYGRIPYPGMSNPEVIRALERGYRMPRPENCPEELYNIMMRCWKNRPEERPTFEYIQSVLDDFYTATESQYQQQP
In short: as §1

YWHAZ = molecular target: T1, YWHAZ (Homo sapiens, UniProt P63104)
T1 sequence (P63104 1-245): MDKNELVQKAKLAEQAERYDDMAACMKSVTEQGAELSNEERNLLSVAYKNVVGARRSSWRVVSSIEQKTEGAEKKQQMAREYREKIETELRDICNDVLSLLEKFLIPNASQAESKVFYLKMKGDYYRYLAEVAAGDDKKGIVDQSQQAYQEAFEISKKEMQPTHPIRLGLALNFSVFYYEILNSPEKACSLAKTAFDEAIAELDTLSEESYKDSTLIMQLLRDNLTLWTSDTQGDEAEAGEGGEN
In short: as §1

NAP1L1 = molecular target: T2, NAP1L1 (Homo sapiens, UniProt P55209)
T2 sequence (P55209 1-391): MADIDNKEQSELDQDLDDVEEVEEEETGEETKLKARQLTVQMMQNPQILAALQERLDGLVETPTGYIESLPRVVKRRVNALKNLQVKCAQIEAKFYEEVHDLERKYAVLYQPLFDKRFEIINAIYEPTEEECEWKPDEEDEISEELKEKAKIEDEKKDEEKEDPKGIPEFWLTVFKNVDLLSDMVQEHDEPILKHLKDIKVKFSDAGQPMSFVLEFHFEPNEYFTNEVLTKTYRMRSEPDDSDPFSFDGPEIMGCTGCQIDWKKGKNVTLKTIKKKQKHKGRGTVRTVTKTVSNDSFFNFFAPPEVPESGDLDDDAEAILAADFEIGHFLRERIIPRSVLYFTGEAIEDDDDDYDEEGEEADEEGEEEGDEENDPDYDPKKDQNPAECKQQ
In short: as §1

Chain of TNIK (Q9UKE5 whole entry): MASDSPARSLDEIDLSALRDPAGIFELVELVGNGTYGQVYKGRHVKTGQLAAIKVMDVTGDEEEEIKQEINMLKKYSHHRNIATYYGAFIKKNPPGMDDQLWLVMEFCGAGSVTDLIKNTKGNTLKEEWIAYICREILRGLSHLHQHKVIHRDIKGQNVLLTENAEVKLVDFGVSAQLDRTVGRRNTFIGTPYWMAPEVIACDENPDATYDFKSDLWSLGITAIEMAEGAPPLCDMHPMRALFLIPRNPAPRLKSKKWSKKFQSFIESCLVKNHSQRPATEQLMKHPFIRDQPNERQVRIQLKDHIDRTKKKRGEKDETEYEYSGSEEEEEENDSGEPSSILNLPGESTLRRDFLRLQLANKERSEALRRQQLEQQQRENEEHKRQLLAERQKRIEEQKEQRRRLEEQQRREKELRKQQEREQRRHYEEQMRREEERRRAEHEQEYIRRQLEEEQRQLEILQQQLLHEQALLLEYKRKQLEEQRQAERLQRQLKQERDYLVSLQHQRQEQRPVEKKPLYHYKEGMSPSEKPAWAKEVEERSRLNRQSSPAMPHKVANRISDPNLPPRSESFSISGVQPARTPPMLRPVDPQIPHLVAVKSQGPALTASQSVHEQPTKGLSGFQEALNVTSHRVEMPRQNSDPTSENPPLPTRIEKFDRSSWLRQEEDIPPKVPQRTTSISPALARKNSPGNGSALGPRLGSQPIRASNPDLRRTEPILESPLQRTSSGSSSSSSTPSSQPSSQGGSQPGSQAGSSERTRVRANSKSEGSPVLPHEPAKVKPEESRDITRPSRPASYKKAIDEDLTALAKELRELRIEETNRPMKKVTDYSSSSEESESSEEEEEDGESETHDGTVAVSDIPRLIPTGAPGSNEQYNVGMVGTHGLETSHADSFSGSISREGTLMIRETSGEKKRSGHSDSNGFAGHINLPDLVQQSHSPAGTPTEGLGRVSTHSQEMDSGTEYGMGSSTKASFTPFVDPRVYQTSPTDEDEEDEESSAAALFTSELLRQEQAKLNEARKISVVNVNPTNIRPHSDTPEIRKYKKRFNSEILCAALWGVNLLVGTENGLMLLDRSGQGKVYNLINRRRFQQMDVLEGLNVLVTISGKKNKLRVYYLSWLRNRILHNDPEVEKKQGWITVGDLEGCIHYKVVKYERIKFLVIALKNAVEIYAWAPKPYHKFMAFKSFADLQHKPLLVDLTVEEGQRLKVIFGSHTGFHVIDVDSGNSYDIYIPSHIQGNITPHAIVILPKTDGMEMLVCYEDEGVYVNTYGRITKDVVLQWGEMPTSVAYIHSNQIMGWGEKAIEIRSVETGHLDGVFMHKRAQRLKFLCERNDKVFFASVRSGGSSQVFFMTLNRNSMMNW

Structure (SMILES): Cc1ccc(C(=O)Nc2ccc(CN3CCN(CCCN)CC3)c(C(F)(F)F)c2)cc1C#Cc1cnc2cccnn12 [c-ponatinib]
- Av. SC comp. (TNIK; + free ponatinib): 0
- Total SC comp. (TNIK; + free ponatinib): 0
- Av. SC (TNIK; no competitor): 26.75
- Total SC (TNIK; no competitor): 107
- Av. SC comp. (HCK; + free ponatinib): 0
- Total SC comp. (HCK; + free ponatinib): 0
- Av. SC (HCK; no competitor): 6
- Total SC (HCK; no competitor): 24
- Av. SC comp. (YWHAZ; + free ponatinib): 2.5
- Total SC comp. (YWHAZ; + free ponatinib): 10
- Av. SC (YWHAZ; no competitor): 10.5
- Total SC (YWHAZ; no competitor): 42
- Av. SC comp. (NAP1L1; + free ponatinib): 1.25
- Total SC comp. (NAP1L1; + free ponatinib): 5
- Av. SC (NAP1L1; no competitor): 2
- Total SC (NAP1L1; no competitor): 8
